Here are results for 9 compounds from PubChem BioAssay (NCI).

“And” between values parts separate entries of the source, which are not always exact repeats. Equal entries are not always repeated.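 Cells were grown in 96-well plates and exposed to each compound for 48 hours at five concentrations; endpoints were interpolated linearly between bracketing concentrations, or set to the highest concentration if not reached. The concentration for 50% growth inhibition is given as GI50. TGI is the concentration that stops growth completely.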

Some test systems named below: SK-MEL-2 melanoma; SF-539 CNS; ACHN renal; COLO 205 colon; K-562 leukemia; SNB-19 CNS; SR leukemia; HOP-62 NSCLC; OVCAR-4 ovarian; HCC-2998 colon.
Assay in all cases: growth of human tumour cells (NCI), 48 h

On to `OB1OCc2cc(/C=C/c3cccc(C(F)(F)F)c3)ccc21`, for which the GI50 in the experiment with SK-MEL-2 melanoma is 46.1 µM; in the experiment with SF-539 CNS it was 0.405 µM; in the experiment on ACHN renal it was 0.332 µM; in the experiment on COLO 205 colon, 2.31 µM; in the experiment on K-562 leukemia, 0.93 µM; in the experiment on SNB-19 CNS, 0.765 µM. In addition, the GI50 with SR leukemia is 0.318 µM; with HOP-62 NSCLC it was 0.483 µM; in the experiment with OVCAR-4 ovarian it was 1.86 µM; with HCC-2998 colon, 2.54 µM. For the same compound, the TGI with SK-MEL-2 melanoma is > 100 µM; with SF-539 CNS, 11.1 µM; in the experiment on ACHN renal, 1.34 µM; with COLO 205 colon, > 100 µM; in the experiment with K-562 leukemia, 24.2 µM; in the experiment with SNB-19 CNS it was 48.7 µM. For the same compound, the TGI in the experiment on SR leukemia is 11.6 µM; with HOP-62 NSCLC it was 17.4 µM; in the experiment on OVCAR-4 ovarian, 17.3 µM; in the experiment with HCC-2998 colon, > 100 µM.
With `Cn1c(/C(C#N)=C/c2ccc3ccccc3c2)cc2ccccc21`, the GI50 with SK-MEL-2 melanoma is 6.28 µM; in the experiment with SF-539 CNS it was 0.101 µM; with ACHN renal, 0.125 µM; in the experiment with COLO 205 colon it was 0.309 µM; in the experiment with K-562 leukemia, 0.0455 µM; in the experiment on SNB-19 CNS, 0.256 µM. Besides, the GI50 in the experiment on SR leukemia was 0.114 µM; in the experiment with HOP-62 NSCLC, 0.357 µM; in the experiment on OVCAR-4 ovarian, > 100 µM; in the experiment on HCC-2998 colon, 0.324 µM. Besides, the TGI was > 100 µM with SK-MEL-2 melanoma; 0.941 µM with SF-539 CNS; > 100 µM with ACHN renal; > 26.1 µM in the experiment with COLO 205 colon; > 100 µM with K-562 leukemia; > 100 µM with SNB-19 CNS. Also, the TGI in the experiment on SR leukemia, in the experiment on HOP-62 NSCLC, in the experiment on OVCAR-4 ovarian and with HCC-2998 colon was > 100 µM throughout.
Regarding `CC(=O)NNc1nc(C)c(C(=O)NNC(=O)C(=O)Nc2nc3ccc([N+](=O)[O-])cc3s2)s1`, the TGI is > 100 µM in the experiment with SK-MEL-2 melanoma; > 100 µM in the experiment on SF-539 CNS; > 100 µM with ACHN renal; > 100 µM in the experiment with COLO 205 colon; > 70.6 µM in the experiment with K-562 leukemia; > 100 µM in the experiment with SNB-19 CNS. In addition, the TGI in the experiment with SR leukemia is > 72.2 µM; in the experiment on HOP-62 NSCLC, > 100 µM; in the experiment on OVCAR-4 ovarian, > 100 µM; with HCC-2998 colon, > 100 µM.
As to `O=C(/C=C/c1ccccc1)CC(c1ccccc1)N1CCOCC1` (centres undefined), the GI50 in the experiment on SK-MEL-2 melanoma was 26.5 µM; in the experiment on SF-539 CNS it was 2.24 µM; with ACHN renal, 2.03 µM; in the experiment with COLO 205 colon, 2.45 µM; in the experiment with K-562 leukemia, 3.4 µM; in the experiment with SNB-19 CNS, 9.8 µM. Further, the GI50 in the experiment on SR leukemia is 2.71 µM; in the experiment on HOP-62 NSCLC, 3.25 µM; in the experiment on OVCAR-4 ovarian it was 9.68 µM; in the experiment on HCC-2998 colon, 1.9 µM. The TGI in the experiment with SK-MEL-2 melanoma is 66.9 µM; in the experiment with SF-539 CNS, 5.98 µM; with ACHN renal it was 4.4 µM; in the experiment on COLO 205 colon it was 5.64 µM; in the experiment on K-562 leukemia, 21.8 µM; in the experiment on SNB-19 CNS, 21.9 µM. Further, the TGI came to 8.92 µM in the experiment on SR leukemia, 11.9 µM in the experiment with HOP-62 NSCLC, 23.3 µM in the experiment with OVCAR-4 ovarian and 3.54 µM with HCC-2998 colon.
As for `CC(CC(=O)Nc1ccc(NC(=O)CC(C)N=NC(N)=S)cc1)N=NC(N)=S` (centres undefined), the TGI with SK-MEL-2 melanoma, in the experiment with SF-539 CNS, in the experiment on ACHN renal, with COLO 205 colon, in the experiment with K-562 leukemia and with SNB-19 CNS was > 100 µM each time. The TGI in the experiment with SR leukemia, with HOP-62 NSCLC, in the experiment with OVCAR-4 ovarian and in the experiment with HCC-2998 colon was > 100 µM each time.
For `COC(=O)/C(C#N)=C1\CCC(C(=O)OC)N1C` (centres undefined), the TGI in the experiment with SK-MEL-2 melanoma, in the experiment with SF-539 CNS, with COLO 205 colon, in the experiment with K-562 leukemia, with SNB-19 CNS and with SR leukemia was > 100 µM in each case. Also, the TGI with HOP-62 NSCLC, with OVCAR-4 ovarian and in the experiment on HCC-2998 colon was > 100 µM throughout.
`CCC1=C[C@@H]2CN(C1)Cc1c([nH]c3ccccc13)[C@@](C(=O)OC)(c1cc3c(cc1OC)N(C)[C@H]1[C@@](O)(C(=O)OC)[C@H](OC(C)=O)[C@]4(CC)[C@@H]5C[C@@H]5CN5CC[C@]31[C@@H]54)C2`: the GI50 was < 0.005 µM in the experiment with SK-MEL-2 melanoma; 0.0342 µM with SF-539 CNS; 0.0191 µM and 0.168 µM in the experiment with ACHN renal; < 0.005 µM in the experiment on COLO 205 colon; < 0.005 µM in the experiment on K-562 leukemia; < 0.005 µM in the experiment on SR leukemia. For the same compound, the GI50 was < 0.005 µM in the experiment with HOP-62 NSCLC; < 0.005 µM in the experiment on OVCAR-4 ovarian; < 0.005 µM and 0.0211 µM in the experiment on HCC-2998 colon. For the same compound, the TGI with SK-MEL-2 melanoma is 2.07 µM; in the experiment with SF-539 CNS, 2.91 µM; in the experiment with ACHN renal, 7.79 µM and 26.2 µM; in the experiment with COLO 205 colon it was 0.00546 µM and 0.0282 µM; in the experiment on SNB-19 CNS, 19.2 µM and 35.1 µM; with HOP-62 NSCLC, 6.94 µM and 16.7 µM. Besides, in the experiment with OVCAR-4 ovarian, the TGI stood at 10.7 µM.
In the case of `Cc1nc(Nc2n[nH]c3c2CN(C(=O)N[C@H](CN(C)C)c2ccccc2)C3(C)C)c2sccc2n1`, the GI50 in the experiment on SK-MEL-2 melanoma is 0.0211 µM and 0.0149 µM; in the experiment with SF-539 CNS, 0.382 µM and 0.149 µM; with ACHN renal, 0.432 µM and 0.337 µM; in the experiment on COLO 205 colon, 0.00866 µM and < 0.0109 µM; in the experiment on K-562 leukemia, 0.0242 µM and 0.199 µM; with SNB-19 CNS it was 0.0575 µM and 0.0546 µM. Further, the GI50 in the experiment on SR leukemia was 0.00432 µM and < 0.01 µM; in the experiment with HOP-62 NSCLC it was 0.0724 µM and 0.129 µM; in the experiment on OVCAR-4 ovarian it was 0.615 µM and 1.39 µM; in the experiment with HCC-2998 colon, 0.0135 µM and 0.0453 µM. Moreover, the TGI in the experiment on SK-MEL-2 melanoma is 1.01 µM and 2.8 µM; in the experiment on SF-539 CNS, 3.68 µM and 2.98 µM; with ACHN renal, > 75 µM; with COLO 205 colon it was 0.241 µM and 0.279 µM; in the experiment with K-562 leukemia, > 100 µM; in the experiment on SNB-19 CNS it was > 6.54 µM and 3.75 µM. For the same compound, the TGI is 5.12 µM and 7.06 µM with HOP-62 NSCLC; > 6.95 µM and 8.37 µM in the experiment on OVCAR-4 ovarian; 2.22 µM and 3.98 µM with HCC-2998 colon.
For the compound `C#CCC(N)(CO)C(=O)O` (centres undefined), the TGI with SK-MEL-2 melanoma, in the experiment with SF-539 CNS, in the experiment with ACHN renal, in the experiment with COLO 205 colon, in the experiment with K-562 leukemia and with SNB-19 CNS was > 100 µM throughout. Also, the TGI in the experiment on SR leukemia, in the experiment on HOP-62 NSCLC, in the experiment on OVCAR-4 ovarian and in the experiment with HCC-2998 colon was > 100 µM throughout.
